Where two headings read alike, the source gives them in different places.
Experiments:
Assay type in all cases: cell-based
[1] = test system: mantle cell lymphoma cell (Mino or JeKo-1); assay: Antiproliferative effect, MTS cell viability assay
Outline: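 Mino cells treated with compounds at 0, 0.0001, 0.001, 0.01, 0.1, 1 μM for 72 h; palbociclib and abemaciclib as positive controls. Viability by MTS, formazan absorbance read at 490 nm.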

CDK4 = molecular target: T1, CDK4 (Homo sapiens, UniProt P11802); assay: CDK4 degradation (DC50, Dmax)
T1 construct: endogenous in cells
T1 sequence (P11802 whole entry): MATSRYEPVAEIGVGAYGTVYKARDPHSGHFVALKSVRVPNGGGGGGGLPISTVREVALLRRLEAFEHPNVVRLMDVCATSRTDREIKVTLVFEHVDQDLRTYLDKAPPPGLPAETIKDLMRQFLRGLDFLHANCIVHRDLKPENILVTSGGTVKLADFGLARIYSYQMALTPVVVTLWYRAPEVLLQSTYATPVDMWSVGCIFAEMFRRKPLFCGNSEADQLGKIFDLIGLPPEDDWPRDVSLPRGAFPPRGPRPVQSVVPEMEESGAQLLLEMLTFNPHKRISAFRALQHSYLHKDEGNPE

CDK6 = molecular target: T2, CDK6 (Homo sapiens, UniProt Q00534); assay: CDK6 degradation (DC50, Dmax)
T2 construct: endogenous in cells
T2 sequence (Q00534 whole entry): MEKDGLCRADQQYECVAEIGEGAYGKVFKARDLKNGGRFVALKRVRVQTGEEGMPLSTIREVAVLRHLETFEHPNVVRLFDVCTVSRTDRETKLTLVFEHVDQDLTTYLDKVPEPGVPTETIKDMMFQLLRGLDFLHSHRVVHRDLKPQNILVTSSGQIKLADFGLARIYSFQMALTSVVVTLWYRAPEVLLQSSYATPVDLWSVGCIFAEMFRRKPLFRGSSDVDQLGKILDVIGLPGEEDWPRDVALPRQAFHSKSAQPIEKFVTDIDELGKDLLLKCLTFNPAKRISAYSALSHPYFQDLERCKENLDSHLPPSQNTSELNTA

[2] = 72 h, mantle cell lymphoma cell (Mino or JeKo-1), MTS assay, read-out: IC50 (anti-proliferation)

| SMILES | IC50 [1, 2] [nM] | DC50 (CDK4) [nM] | Dmax (CDK4) [%] | DC50 (CDK6) [nM] | Dmax (CDK6) [%] | IC50 ([1]; mantle cell lymphoma cell (Mino or JeKo-1); MTS assay, 72 h; read-out: IC50 (anti-proliferation)) [nM] | Dmax CDK4 (CDK4) | Dmax CDK6 (CDK6) |
| --- | --- | --- | --- | --- | --- | --- | --- | --- |
| CC(=O)c1c(C)c2cnc(Nc3ccc(N4CCN(C(=O)N5CCC(CCC6CCN(c7ccc8c(c7)C(=O)N(C7CCC(=O)NC7=O)C8=O)CC6)CC5)CC4)cn3)nc2n(C2CCCC2)c1=O (centres unmarked) [Compound 25, 5-(4-(2-(1-(4-(6-((6-acetyl-8-cyclopentyl-5-methyl-7-oxo-7,8-dihydropyrido[2,3-d]pyrimidin-2-yl)amino)pyridin-3-yl)piperazine-1-carbonyl)piperidin-4-yl)ethyl)piperidin-1-yl)-2-(2,6-dioxopiperidin-3-yl)isoindoline-1,3-dione] | 50 to 200 | > 200 | > 60 | 50 to 200 | > 60 | – | – | – |
| CC(=O)c1c(C)c2cnc(Nc3ccc(N4CCN(C(=O)C5CN(c6ccc7c(c6)CN(C6CCC(=O)NC6=O)C7=O)C5)CC4)cn3)nc2n(C2CCCC2)c1=O (centres unmarked) [Compound 122, 3-(5-(3-(4-(6-((6-acetyl-8-cyclopentyl-5-methyl-7-oxo-7,8-dihydropyrido[2,3-d]pyrimidin-2-yl)amino)pyridin-3-yl)piperazine-1-carbonyl)azetidin-1-yl)-1-oxoisoindolin-2-yl) piperidine-2,6-dione] | < 50 | < 50 | > 80 | < 50 | > 80 | – | – | – |
| Cc1nc2c(F)cc(-c3nc(Nc4ccc(CC5CCN(CC6CN(c7ccc(C(=O)NC8CCC(=O)NC8=O)cc7)C6)CC5)cn4)ncc3F)cc2n1C(C)C (centres unmarked) [Compound 141, N-(2,6-dioxopiperidin-3-yl)-4-(3-((4-((6-{(5-fluoro-4-(4-fluoro-1-isopropyl-2-methyl-1H-benzo[d]imidazol-6-yl)pyrimidin-2-yl)amino)pyridin-3-yl)methyl)piperidin-1-yl)methyl)azetidin-1-yl)benzamide] | < 50 | 50 to 200 | > 80 | 50 to 200 | > 80 | – | – | – |
| CC(=O)c1c(C)c2cnc(Nc3ccc(N4CCN(CCN(C)c5ccc6c(c5)C(=O)N(C5CCC(=O)NC5=O)C6=O)CC4)cn3)nc2n(C2CCCC2)c1=O (centres unmarked) [Compound 55, 5-((2-(4-(6-((6-acetyl-8-cyclopentyl-5-methyl-7-oxo-7,8-dihydropyrido[2,3-d]pyrimidin-2-yl)amino)pyridin-3-yl)piperazin-1-yl)ethyl)(methyl)amino)-2-(2,6-dioxopiperidin-3-yl) isoindoline-1,3-dione] | 50 to 200 | 50 to 200 | > 60 | 50 to 200 | > 60 | – | – | – |
| CC(=O)c1c(C)c2cnc(Nc3ccc(N4CCN(C(=O)N5CCN(CCC6CCN(c7ccc8c(c7)C(=O)N(C7CCC(=O)NC7=O)C8=O)CC6)CC5)CC4)cn3)nc2n(C2CCCC2)c1=O (centres unmarked) [Compound 23, 5-(4-(2-(4-(4-(6-((6-acetyl-8-cyclopentyl-5-methyl-7-oxo-7,8-dihydropyrido[2,3-d]pyrimidin-2-yl)amino)pyridin-3-yl)piperazine-1-carbonyl)piperazin-1-yl)ethyl)piperidin-1-yl)-2-(2,6-dioxopiperidin-3-yl) isoindoline-1,3-dione] | > 200 | > 200 | > 60 | > 200 | > 60 | – | – | – |
| CC(=O)c1c(C)c2cnc(Nc3ccc(N4CCN(C5CCN(c6cccc7c6C(=O)N(C6CCC(=O)NC6=O)C7=O)CC5)CC4)cn3)nc2n(C2CCCC2)c1=O (centres unmarked) [Compound 77, 4-(4-(4-(6-((6-acetyl-8-cyclopentyl-5-methyl-7-oxo-7,8-dihydropyrido[2,3-d]pyrimidin-2-yl)amino)pyridin-3-yl)piperazin-1-y1)piperidin-1-yl)-2-(2,6-dioxopiperidin-3-yl) isoindoline-1,3-dione] | 50 to 200 | 50 to 200 | > 60 | 50 to 200 | > 60 | – | – | – |
| Cc1nc2c(F)cc(-c3nc(Nc4ccc(CN5CCN(CCCNc6ccc7c(c6)CN(C6CCC(=O)NC6=O)C7=O)CC5)cn4)ncc3F)cc2n1C(C)C (centres unmarked) [Compound 74, 3-(5-((3-(4-((6-((5-fluoro-4-(4-fluoro-1-isopropyl-2-methyl-1H-benzo[d]imidazol-6-yl)pyrimidin-2-yl)amino)pyridin-3-yl)methyl)piperazin-1-yl)propyl)amino)-1-oxoisoindolin-2-yl)piperidine-2,6-dione] | < 50 | < 50 | > 80 | < 50 | > 80 | – | – | – |
| CC(=O)c1c(C)c2cnc(Nc3ccc(C4CCN(C(=O)C5CN(c6ccc(C(=O)NC7CCC(=O)NC7=O)cc6)C5)CC4)cn3)nc2n(C2CCCC2)c1=O (centres unmarked) [Compound 131, 4-(3-(4-(6-((6-acetyl-8-cyclopentyl-5-methyl-7-oxo-7,8-dihydropyrido[2,3-d]pyrimidin-2-yl)amino)pyridin-3-yl)piperidine-1-carbonyl)azetidin-1-yl)-N-(2,6-dioxopiperidin-3-yl)benzamide] | 50 to 200 | 50 to 200 | > 60 | 50 to 200 | > 60 | – | – | – |
| Cc1nc2c(F)cc(-c3nc(Nc4ccc(CC5CCN(CC6CN(c7ccc(NC8CCC(=O)NC8=O)cc7)C6)CC5)cn4)ncc3F)cc2n1C(C)C (centres unmarked) [Compound 142, 3-((4-(3-((4-((6-((5-fluoro-4-(4-fluoro-1-isopropyl-2-methyl-1H-benzo[d]imidazol-6-yl)pyrimidin-2-yl)amino)pyridin-3-yl)methyl)piperidin-1-yl)methyl)azetidin-1-yl)phenyl)amino) piperidine-2,6-dione] | < 50 | 50 to 200 | > 80 | 50 to 200 | > 80 | – | – | – |
| Cc1nc2c(F)cc(-c3nc(Nc4ccc(CN5CCN(C6CCN(c7ccc(NC8CCC(=O)NC8=O)cc7)CC6)CC5)cn4)ncc3F)cc2n1C(C)C (centres unmarked) [Compound 168, 3-((4-(4-(4-((6-((5-fluoro-4-(4-fluoro-1-isopropyl-2-methyl-1H-benzo[d]imidazol-6-yl)pyrimidin-2-yl)amino)pyridin-3-yl)methyl)piperazin-1-yl)piperidin-1-yl)phenyl)amino) piperidine-2,6-dione] | < 50 | 50 to 200 | > 80 | < 50 | > 80 | – | – | – |
| CC(=O)c1c(C)c2cnc(Nc3ccc(N4CCN(C(=O)C5CCN(c6ccc7c(c6)CN(C6CCC(=O)NC6=O)C7=O)CC5)CC4)cn3)nc2n(C2CCCC2)c1=O (centres unmarked) [Compound 115, 3-(5-(4-(4-(6-((6-acetyl-8-cyclopentyl-5-methyl-7-oxo-7,8-dihydropyrido[2,3-d]pyrimidin-2-yl)amino)pyridin-3-yl)piperazine-1-carbonyl)piperidin-1-yl)-1-oxoisoindolin-2-yl)piperidine-2,6-dione] | < 50 | 50 to 200 | > 60 | 50 to 200 | > 60 | – | – | – |
| CC(=O)c1c(C)c2cnc(Nc3ccc(N4CCN(CC5CCN(C(=O)N6CCC(C7CCN(c8ccc9c(c8)C(=O)N(C8CCC(=O)NC8=O)C9=O)CC7)CC6)CC5)CC4)cn3)nc2n(C2CCCC2)c1=O (centres unmarked) [Compound 82, 5-(1′-(4-((4-(6-((6-acetyl-8-cyclopentyl-5-methyl-7-oxo-7,8-dihydropyrido[2,3-d]pyrimidin-2-yl)amino)pyridin-3-yl)piperazin-1-yl)methyl)piperidine-1-carbonyl)-[4,4′-bipiperidin]-1-yl)-2-(2,6-dioxopiperidin-3-yl) isoindoline-1,3-dione] | > 200 | > 200 | > 50 | > 200 | > 50 | – | – | – |
| CC(=O)c1c(C)c2cnc(Nc3ccc(N4CCN(CCCNc5ccc(N6CCC(=O)NC6=O)cc5)CC4)cn3)nc2n(C2CCCC2)c1=O [Compound 105, 1-(4-((3-(4-(6-((6-acetyl-8-cyclopentyl-5-methyl-7-oxo-7,8-dihydropyrido[2,3-d]pyrimidin-2-yl)amino)pyridin-3-yl)piperazin-1-yl)propyl)amino)phenyl)dihydro-pyrimidine-2,4 (1H,3H)-dione] | < 50 | < 50 | > 80 | < 50 | > 80 | – | – | – |
| Cc1nc2c(F)cc(-c3nc(Nc4ccc(CN5CCN(C6CCN(c7ccc(C(=O)NC8CCC(=O)NC8=O)cc7)CC6)CC5)cn4)ncc3F)cc2n1C(C)C (centres unmarked) [Compound 167, N-(2,6-dioxopiperidin-3-yl)-4-(4-(4-((6-((5-fluoro-4-(4-fluoro-1-isopropyl-2-methyl-1H-benzo[d]imidazol-6-yl)pyrimidin-2-yl)amino)pyridin-3-yl)methyl)piperazin-1-yl)piperidin-1-yl)benzamide] | – | 50 to 200 | – | 50 to 200 | – | 50 to 200 | B (B: >60%) | B (B: >60%) |
| Cc1nc2c(F)cc(-c3nc(Nc4ccc(CC5CCN(C(=O)C6CN(c7ccc8c(c7)CN(C7CCC(=O)NC7=O)C8=O)C6)CC5)cn4)ncc3F)cc2n1C(C)C (centres unmarked) [Compound 144, 3-(5-(3-(4-((6-((5-fluoro-4-(4-fluoro-1-isopropyl-2-methyl-1H-benzo[d]imidazol-6-yl)pyrimidin-2-yl)amino)pyridin-3-yl)methyl)piperidine-1-carbonyl)azetidin-1-yl)-1-oxoisoindolin-2-yl) piperidine-2,6-dione] | < 50 | 50 to 200 | > 80 | 50 to 200 | > 80 | – | – | – |
| CC(=O)c1c(C)c2cnc(Nc3ccc(N4CCN(C(=O)N5CCC(C6CCN(c7ccc8c(c7)C(=O)N(C7CCC(=O)NC7=O)C8=O)CC6)CC5)CC4)cn3)nc2n(C2CCCC2)c1=O (centres unmarked) [Compound 9, 5-(1′-(4-(6-((6-acetyl-8-cyclopentyl-5-methyl-7-oxo-7,8-dihydropyrido[2,3-d]pyrimidin-2-yl)amino)pyridin-3-yl)piperazine-1-carbonyl)-[4,4′-bipiperidin]-1-yl)-2-(2,6-dioxopiperidin-3-yl)isoindoline-1,3-dione] | > 200 | > 200 | > 50 | > 200 | > 50 | – | – | – |
